Experimental data from patent US20240301372A1, “TREATMENT FOR HSV-1 USING A MEGANUCLEASE” (priority 2021, published 2024).

Test system: HSV-1
Test: JQ1 reactivation (shedding) mouse model
Assay type: in vivo, mice
Settings: for shedding of HSV from mucosal surfaces: 50 mg/kg
Method: FIG. 19. Schematic for JQ1 reactivation experiment. Latent infected mice were divided into three experimental groups to determine the effect of JQ1 on HSV reactivation. As illustrated in the figure, Group 1 and Group 2 were JQ1 groups that received a 50 mg/kg intraperitoneal injection of JQ1. Group 3 was the control group, i.e., no JQ1 injection. Group 1 mice received two injections, the first JQ1 injection at 0 hrs and the second JQ1 injection at 12 hrs. Group 2 mice received one injection at 0 hrs. Group 3 mice received one control injection at 0 hrs. To determine shedding from mucosal surfaces, as an indicator of HSV reactivation, mice were swabbed at 0 hrs (control) and this swab was compared to swabs taken at 24 hours, 48 hours, and 72 hours.
To begin, the mouse model for BET induced shedding was verified. In this model, latent infected mice were divided into three experimental groups to determine the effect of the BET inhibitor, JQ1, on HSV-1 reactivation. FIG. 19. As illustrated, Group 1 and Group 2 were JQ1 groups that received 50 mg/kg intraperitoneal injection of JQ1. Group 3 was the control group, i.e., no JQ1 injection. Group 1 mice received two injections, the first JQ1 injection at 0 hrs and the second JQ1 injection at 12 hrs. Group 2 mice received one injection at 0 hrs. Group 3 mice received one control injection at 0 hrs. To determine shedding from mucosal surfaces, as an indicator of HSV-1 reactivation, mice were swabbed at 0 hrs (control) and this swab was compared to swabs taken at 24 hours, 48 hours, and 72 hours. […] FIG. 20B. […] Compare the onset and duration of viral shedding in JQ1 double dose to JQ1 single dose.

In the case of `Cc1sc2c(c1C)C(c1ccc(Cl)cc1)=N[C@@H](CC(=O)OC(C)(C)C)c1nnc(C)n1-2` [JQ1, tert-butyl (S)-2-(4-(4-chlorophenyl)-2,3,9-trimethyl-6H-thieno[3,2-f][1,2,4]triazolo[4,3-a][1,4]diazepin-6-yl)acetate], the “time of peak shedding following JQ1 injection” value (single dose 50 mg/kg intraperitoneal) is reported as 2 days, the “shedding of HSV from mucosal surfaces” value (single dose 50 mg/kg intraperitoneal at 0 hrs, swabs 24, 48, 72 hours) is reported as “Shedding was detected” and the “shedding of HSV from mucosal surfaces” value (two doses 50 mg/kg intraperitoneal at 0 hrs and 12 hrs) is reported as “Shedding was also detected”.
